“And” between values parts separate entries of the source, which are not always exact repeats. Identical values can stand only once.
Assays:
[1] = target: Amine oxidase [flavin-containing] A (Rattus norvegicus, UniProt P21396)
[2] = target: Muscarinic acetylcholine receptor M2 (Homo sapiens, UniProt P08172)
[3] = target: Calcium-activated potassium channel subunit beta-1 (Rattus norvegicus, UniProt P97678)
Adenosine receptor A1 = Adenosine receptor A1 (Rattus norvegicus, UniProt P25099)
[4] = target: Sodium channel protein type 1 subunit alpha (Rattus norvegicus, UniProt P04774)
[5] = target: Delta-type opioid receptor (Rattus norvegicus, UniProt P33533)
Adenosine receptor A2b = Adenosine receptor A2b (Bos taurus, UniProt Q1LZD0)
[6] = target: Amine oxidase [flavin-containing] B (Rattus norvegicus, UniProt P19643)
[7] = target: Nitric oxide synthase, brain (Rattus norvegicus, UniProt P29476)
[8] = target: Gamma-aminobutyric acid receptor subunit alpha-1 (Rattus norvegicus, UniProt P62813)
Mu-type opioid receptor = Mu-type opioid receptor (Rattus norvegicus, UniProt P33535)
[9] = target: Sodium channel protein type 2 subunit alpha (Rattus norvegicus, UniProt P04775)
[10] = target: Gamma-aminobutyric acid receptor subunit alpha-1 (Bos taurus, UniProt P08219)
[11] = target: 5-hydroxytryptamine receptor 6 (Homo sapiens, UniProt P50406)
Alpha-bungarotoxin = Alpha-bungarotoxin (Bungarus multicinctus, UniProt P60615)
D(1A) dopamine receptor = D(1A) dopamine receptor (Rattus norvegicus, UniProt P18901)
[12] = target: Phosphatidylinositol 3,4,5-trisphosphate 5-phosphatase 2 (Rattus norvegicus, UniProt Q9WVR3)
[13] = target: 5-hydroxytryptamine receptor 1A (Homo sapiens, UniProt P08908)
[14] = target: Gastrin/cholecystokinin type B receptor (Mus musculus, UniProt P56481)
[15] = target: Sigma non-opioid intracellular receptor 1 (Cavia porcellus, UniProt Q60492)
[16] = target: Kappa-type opioid receptor (Cavia porcellus, UniProt P41144)
Glutamate receptor 3 = Glutamate receptor 3 (Rattus norvegicus, UniProt P19492)
[17] = target: Alpha-1B adrenergic receptor (Rattus norvegicus, UniProt P15823)
[18] = target: Alpha-2A adrenergic receptor (Homo sapiens, UniProt P08913)
[19] = target: Glutamate receptor ionotropic, kainate 1 (Rattus norvegicus, UniProt P22756)
Substance-K receptor = Substance-K receptor (Rattus norvegicus, UniProt P16610)
[20] = target: 5-hydroxytryptamine receptor 1D (Homo sapiens, UniProt P28221)
D(2) dopamine receptor = D(2) dopamine receptor (Homo sapiens, UniProt P14416)
[21] = target: ATP-sensitive inward rectifier potassium channel 1 (Rattus norvegicus, UniProt P35560)
[22] = target: Glycine receptor subunit alpha-1 (Rattus norvegicus, UniProt P07727)
[23] = target: Alpha-1A adrenergic receptor (Homo sapiens, UniProt P35348)

Sequence of Sigma non-opioid intracellular receptor 1 (Q60492 whole entry): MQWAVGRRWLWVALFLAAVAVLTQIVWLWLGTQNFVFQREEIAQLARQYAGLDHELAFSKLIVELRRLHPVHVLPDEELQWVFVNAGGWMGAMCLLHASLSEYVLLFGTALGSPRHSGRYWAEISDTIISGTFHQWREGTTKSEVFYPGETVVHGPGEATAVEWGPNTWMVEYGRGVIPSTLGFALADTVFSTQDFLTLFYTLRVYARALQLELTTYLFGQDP
Sequence of Muscarinic acetylcholine receptor M2 (P08172 whole entry): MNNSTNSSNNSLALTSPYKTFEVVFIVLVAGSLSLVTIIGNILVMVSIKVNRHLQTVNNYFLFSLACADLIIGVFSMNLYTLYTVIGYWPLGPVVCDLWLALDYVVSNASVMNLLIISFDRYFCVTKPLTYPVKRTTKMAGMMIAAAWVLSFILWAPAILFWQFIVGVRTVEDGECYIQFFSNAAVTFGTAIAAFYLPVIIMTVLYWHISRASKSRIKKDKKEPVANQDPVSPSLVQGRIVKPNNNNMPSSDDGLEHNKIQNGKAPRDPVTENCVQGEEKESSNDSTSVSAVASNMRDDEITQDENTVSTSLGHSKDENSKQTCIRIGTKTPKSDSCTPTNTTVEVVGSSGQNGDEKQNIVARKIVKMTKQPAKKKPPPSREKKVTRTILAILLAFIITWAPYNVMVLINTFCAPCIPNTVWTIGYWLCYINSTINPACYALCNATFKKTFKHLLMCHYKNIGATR
Sequence of Alpha-2A adrenergic receptor (P08913 whole entry): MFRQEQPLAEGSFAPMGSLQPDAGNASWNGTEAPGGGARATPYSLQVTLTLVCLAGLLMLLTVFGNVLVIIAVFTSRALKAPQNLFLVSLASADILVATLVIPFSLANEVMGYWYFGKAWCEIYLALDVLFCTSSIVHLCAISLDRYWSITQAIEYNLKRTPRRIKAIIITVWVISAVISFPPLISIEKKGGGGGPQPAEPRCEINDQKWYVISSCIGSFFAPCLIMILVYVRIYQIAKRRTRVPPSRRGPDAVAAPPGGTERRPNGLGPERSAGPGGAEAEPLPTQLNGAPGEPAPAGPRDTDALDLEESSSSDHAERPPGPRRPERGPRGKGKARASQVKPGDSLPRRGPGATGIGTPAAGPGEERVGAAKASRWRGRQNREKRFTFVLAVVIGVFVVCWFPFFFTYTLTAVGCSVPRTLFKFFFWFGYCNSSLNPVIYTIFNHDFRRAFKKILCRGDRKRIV
Sequence of Substance-K receptor (P16610 whole entry): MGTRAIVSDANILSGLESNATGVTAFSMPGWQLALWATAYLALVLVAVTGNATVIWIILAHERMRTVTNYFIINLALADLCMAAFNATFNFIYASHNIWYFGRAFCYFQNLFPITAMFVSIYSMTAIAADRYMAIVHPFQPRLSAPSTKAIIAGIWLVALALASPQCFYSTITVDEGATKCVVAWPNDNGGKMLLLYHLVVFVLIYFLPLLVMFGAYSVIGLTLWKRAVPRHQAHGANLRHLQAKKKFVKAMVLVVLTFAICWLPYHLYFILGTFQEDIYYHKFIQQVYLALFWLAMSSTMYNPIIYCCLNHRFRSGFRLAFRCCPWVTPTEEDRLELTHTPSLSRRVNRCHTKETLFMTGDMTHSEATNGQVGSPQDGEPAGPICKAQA
Sequence of Glutamate receptor 3 (P19492 whole entry): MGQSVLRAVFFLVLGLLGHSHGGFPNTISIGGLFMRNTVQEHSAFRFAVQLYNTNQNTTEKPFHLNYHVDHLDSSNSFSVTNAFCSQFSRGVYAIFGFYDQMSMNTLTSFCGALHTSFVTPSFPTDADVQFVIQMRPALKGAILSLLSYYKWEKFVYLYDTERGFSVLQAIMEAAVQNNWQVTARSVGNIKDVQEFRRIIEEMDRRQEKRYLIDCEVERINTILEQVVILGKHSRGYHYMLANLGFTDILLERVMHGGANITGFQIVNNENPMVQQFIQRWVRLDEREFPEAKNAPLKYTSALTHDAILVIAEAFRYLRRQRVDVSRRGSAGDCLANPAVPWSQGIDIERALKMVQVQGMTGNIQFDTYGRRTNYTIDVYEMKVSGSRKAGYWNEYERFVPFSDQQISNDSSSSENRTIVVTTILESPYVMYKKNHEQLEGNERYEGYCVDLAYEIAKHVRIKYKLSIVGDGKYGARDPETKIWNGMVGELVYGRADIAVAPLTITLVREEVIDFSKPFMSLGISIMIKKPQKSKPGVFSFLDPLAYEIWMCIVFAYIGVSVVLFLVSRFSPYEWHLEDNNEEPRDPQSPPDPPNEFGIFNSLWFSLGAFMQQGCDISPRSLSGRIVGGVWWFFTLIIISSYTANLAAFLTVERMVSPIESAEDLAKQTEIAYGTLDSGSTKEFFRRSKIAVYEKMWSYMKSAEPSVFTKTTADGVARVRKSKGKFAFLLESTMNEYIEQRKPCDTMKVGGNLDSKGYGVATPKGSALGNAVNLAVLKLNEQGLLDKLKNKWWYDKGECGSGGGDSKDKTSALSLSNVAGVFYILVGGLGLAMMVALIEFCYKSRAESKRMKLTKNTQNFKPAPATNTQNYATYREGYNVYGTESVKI
Sequence of D(2) dopamine receptor (P14416 whole entry): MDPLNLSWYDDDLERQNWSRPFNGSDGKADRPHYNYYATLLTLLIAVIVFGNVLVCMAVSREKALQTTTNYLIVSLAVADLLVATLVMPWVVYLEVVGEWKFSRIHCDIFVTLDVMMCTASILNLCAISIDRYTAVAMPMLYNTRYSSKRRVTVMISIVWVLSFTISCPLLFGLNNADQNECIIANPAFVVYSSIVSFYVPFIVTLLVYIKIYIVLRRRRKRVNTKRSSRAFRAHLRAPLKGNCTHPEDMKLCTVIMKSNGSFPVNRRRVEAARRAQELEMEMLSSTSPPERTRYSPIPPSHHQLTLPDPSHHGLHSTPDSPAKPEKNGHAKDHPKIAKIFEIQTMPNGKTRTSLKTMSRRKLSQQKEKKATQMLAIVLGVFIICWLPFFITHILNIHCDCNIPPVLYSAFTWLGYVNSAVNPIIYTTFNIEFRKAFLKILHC
Sequence of Delta-type opioid receptor (P33533 whole entry): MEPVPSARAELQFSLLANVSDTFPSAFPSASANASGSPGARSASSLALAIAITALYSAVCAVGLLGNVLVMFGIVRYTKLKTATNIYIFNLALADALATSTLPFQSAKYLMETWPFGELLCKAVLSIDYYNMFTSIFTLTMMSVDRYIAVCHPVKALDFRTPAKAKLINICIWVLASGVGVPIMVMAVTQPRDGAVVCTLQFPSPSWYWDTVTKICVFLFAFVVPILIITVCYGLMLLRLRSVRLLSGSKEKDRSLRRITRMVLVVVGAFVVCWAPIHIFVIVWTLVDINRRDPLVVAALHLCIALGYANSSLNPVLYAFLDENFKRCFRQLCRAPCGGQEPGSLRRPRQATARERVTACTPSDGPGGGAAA
Sequence of D(1A) dopamine receptor (P18901 whole entry): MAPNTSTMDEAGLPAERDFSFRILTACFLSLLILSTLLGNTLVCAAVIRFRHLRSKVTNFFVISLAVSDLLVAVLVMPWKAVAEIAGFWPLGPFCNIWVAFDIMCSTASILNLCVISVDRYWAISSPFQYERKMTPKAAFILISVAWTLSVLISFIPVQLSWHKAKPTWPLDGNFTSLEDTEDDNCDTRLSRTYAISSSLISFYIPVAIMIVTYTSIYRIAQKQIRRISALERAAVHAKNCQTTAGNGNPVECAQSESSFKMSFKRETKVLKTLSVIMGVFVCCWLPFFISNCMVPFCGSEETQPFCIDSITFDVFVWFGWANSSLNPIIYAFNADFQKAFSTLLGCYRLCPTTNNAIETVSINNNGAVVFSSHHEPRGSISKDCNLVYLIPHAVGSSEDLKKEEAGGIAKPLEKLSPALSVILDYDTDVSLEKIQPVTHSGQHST
Sequence of 5-hydroxytryptamine receptor 1D (P28221 whole entry): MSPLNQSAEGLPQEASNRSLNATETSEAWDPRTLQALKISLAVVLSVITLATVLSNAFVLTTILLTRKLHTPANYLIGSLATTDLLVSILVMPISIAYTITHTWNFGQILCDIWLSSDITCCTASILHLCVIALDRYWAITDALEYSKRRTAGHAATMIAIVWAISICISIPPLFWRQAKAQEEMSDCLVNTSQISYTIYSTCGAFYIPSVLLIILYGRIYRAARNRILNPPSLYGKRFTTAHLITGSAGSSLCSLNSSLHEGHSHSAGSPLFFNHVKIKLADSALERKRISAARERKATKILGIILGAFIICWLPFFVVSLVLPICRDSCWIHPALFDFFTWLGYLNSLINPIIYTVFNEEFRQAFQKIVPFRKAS
Sequence of Glycine receptor subunit alpha-1 (P07727 whole entry): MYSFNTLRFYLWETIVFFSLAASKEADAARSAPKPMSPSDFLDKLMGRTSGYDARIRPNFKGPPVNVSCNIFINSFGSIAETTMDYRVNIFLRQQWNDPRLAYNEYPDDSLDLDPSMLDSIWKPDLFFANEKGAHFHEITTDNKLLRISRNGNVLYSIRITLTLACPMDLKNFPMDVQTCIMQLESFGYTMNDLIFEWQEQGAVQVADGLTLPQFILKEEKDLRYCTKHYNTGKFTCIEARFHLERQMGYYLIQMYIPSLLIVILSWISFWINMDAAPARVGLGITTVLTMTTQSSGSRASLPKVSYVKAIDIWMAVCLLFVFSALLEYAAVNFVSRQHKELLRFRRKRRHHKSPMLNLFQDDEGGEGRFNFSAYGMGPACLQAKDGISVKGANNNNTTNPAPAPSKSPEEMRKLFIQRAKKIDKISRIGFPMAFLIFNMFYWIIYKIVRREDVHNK
Sequence of ATP-sensitive inward rectifier potassium channel 1 (P35560 whole entry): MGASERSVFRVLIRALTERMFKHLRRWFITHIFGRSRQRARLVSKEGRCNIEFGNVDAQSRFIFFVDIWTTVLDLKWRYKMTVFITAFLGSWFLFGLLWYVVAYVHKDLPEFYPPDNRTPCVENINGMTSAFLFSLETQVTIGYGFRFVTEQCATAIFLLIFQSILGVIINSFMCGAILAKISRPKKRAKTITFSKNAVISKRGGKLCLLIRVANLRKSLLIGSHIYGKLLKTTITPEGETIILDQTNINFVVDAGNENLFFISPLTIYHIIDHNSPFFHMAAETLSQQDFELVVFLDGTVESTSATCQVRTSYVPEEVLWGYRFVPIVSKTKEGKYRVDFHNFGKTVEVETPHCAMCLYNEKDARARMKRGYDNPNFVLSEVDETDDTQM

Row | SMILES | Ki [1] [nM] | Ki [2] | Ki [3] [nM] | Ki (Adenosine receptor A1) [nM] | Ki [4] [nM] | Ki [5] [nM] | Ki (Adenosine receptor A2b) [nM] | Ki [6] [nM] | Ki [7] [nM] | Ki [8] [nM] | Ki (Mu-type opioid receptor) [nM] | Ki [9] [nM] | Ki [10] [nM] | Ki [11] [nM] | Ki (Alpha-bungarotoxin) [nM] | Ki (D(1A) dopamine receptor) [nM] | Ki [12] [nM] | Ki [13] [nM] | Ki [14] [nM] | Ki [15] [nM] | other results
1 | CNCC[C@H](Oc1cccc2ccccc12)c1cccs1 [DULOXETINE] | > 10000 | 3000 nM and 1000 nM | 1000 | > 1000 | > 1000 | 1000 | 1000 | > 10000 | 1000 | > 1000 | 1000 | > 1000 | > 1000 | 419 | 1000 | 1000 | 1000 | 5000 | > 1000 | 1000 | Ki [16]: 1000 nM; Ki (Glutamate receptor 3): > 1000 nM; Ki [17]: > 1000 nM; Ki [18]: 8600 nM and 1000 nM; Ki [19]: 1000 nM; Ki (Substance-K receptor): 1000 nM; Ki [20]: 3000 nM; Ki (D(2) dopamine receptor): > 10000 nM; Ki [21]: > 1000 nM; Ki [22]: 1000 nM
2 | COc1ccc(C(CN(C)C)C2(O)CCCCC2)cc1 (stereo unspecified) [NSC_62923] | > 10000 | > 10000 nM and 1000 nM | 1000 | > 1000 | > 1000 | 1000 | 1000 | > 10000 | 1000 | > 1000 | 1000 | > 1000 | > 1000 | 2790 | 1000 | 1000 | 1000 | > 10000 | > 1000 | 1000 | Ki [23]: > 10000 nM; Ki [16]: 1000 nM; Ki (Glutamate receptor 3): > 1000 nM; Ki [17]: > 1000 nM; Ki [18]: > 10000 nM and 1000 nM; Ki [19]: 1000 nM; Ki (Substance-K receptor): 1000 nM; Ki [20]: > 10000 nM; Ki (D(2) dopamine receptor): > 10000 nM; Ki [21]: > 1000 nM; Ki [22]: 1000 nM

From BindingDB's records for doi:10.1016/S0893-133X(01)00298-6 (Eli Lilly, 2001)
